Bridge positions count the residues as written; N and C are the ends. Ends that are not written are not given here.
Test system: patients with chronic idiopathic constipation (CIC)
Assay: Second phase 3 CIC trial: change from baseline in CSBMs/week
Assay type: in vivo, human
[1] = Post-Treatment Week 13, 3 mg, ITT Population, MRA
[2] = Post-Treatment Week 13, 3 mg, ITT Population-Excluding Duplicate Patients, MRA
[3] = Post-Treatment Week 13, 6 mg, ITT Population, MRA
[4] = Post-Treatment Week 13, 6 mg, ITT Population-Excluding Duplicate Patients, MRA
[5] = Post-Treatment Week 14, 3 mg, ITT Population, MRA
[6] = Post-Treatment Week 14, 3 mg, ITT Population-Excluding Duplicate Patients, MRA
[7] = Post-Treatment Week 14, 6 mg, ITT Population, MRA
[8] = Post-Treatment Week 14, 6 mg, ITT Population-Excluding Duplicate Patients, MRA
[9] = Week 1, 3 mg, ITT Population, MRA
[10] = Week 1, 3 mg, ITT Population-Excluding Duplicate Patients, MRA
[11] = Week 1, 6 mg, ITT Population, MRA
[12] = Week 1, 6 mg, ITT Population-Excluding Duplicate Patients, MRA
[13] = Week 2, 3 mg, ITT Population, MRA
[14] = Week 2, 3 mg, ITT Population-Excluding Duplicate Patients, MRA
[15] = Week 2, 6 mg, ITT Population, MRA
[16] = Week 2, 6 mg, ITT Population-Excluding Duplicate Patients, MRA
[17] = Week 3, 3 mg, ITT Population, MRA
[18] = Week 3, 3 mg, ITT Population-Excluding Duplicate Patients, MRA
[19] = Week 3, 6 mg, ITT Population, MRA

## Asn^1-Asp^2-Glu^3-Cys^4-Glu^5-Leu^6-Cys^7-Val^8-Asn^9-Val^10-Ala^11-Cys^12-Thr^13-Gly^14-Cys^15-Leu^16 (NDECELCVNVACTGCL; disulfide 4-12, 7-15) [Plecanatide, uroguanylin analogue, guanylate cyclase-C agonist; (C4:C12, C7:C15) bicycle peptide]
6 mg, overall average estimate across the 12-week treatment period, All Randomized (includes Duplicate Patients)
  Change from Baseline in CSBMs, LS Mean (SE): 2.14 (0.129) CSBMs/week
Active Combined, Post-Treatment Week 13, All Randomized (includes Duplicate Patients)
  Change from Baseline in CSBMs, Mean (SD): 1.73 (2.552) CSBMs/week
Active Combined, Post-Treatment Week 14, All Randomized (includes Duplicate Patients)
  Change from Baseline in CSBMs, Mean (SD): 1.69 (2.591) CSBMs/week
Active Combined, Week 1, All Randomized (includes Duplicate Patients)
  Change from Baseline in CSBMs, Mean (SD): 1.73 (2.803) CSBMs/week
Active Combined, Week 2, All Randomized (includes Duplicate Patients)
  Change from Baseline in CSBMs, Mean (SD): 1.83 (3.037) CSBMs/week
Active Combined, Week 3, All Randomized (includes Duplicate Patients)
  Change from Baseline in CSBMs, Mean (SD): 1.89 (3.005) CSBMs/week
[1]
  Change from Baseline in CSBMs, Difference from Placebo: 0.43 CSBMs/week
  Change from Baseline in CSBMs, LS Mean (SE): 1.94 (0.134) CSBMs/week
  Change from Baseline in CSBMs, Mean (SD): 1.88 (2.733) CSBMs/week
[2]
  Change from Baseline in CSBMs, Difference from Placebo: 0.46 CSBMs/week
  Change from Baseline in CSBMs, LS Mean (SE): 1.96 (0.135) CSBMs/week
  Change from Baseline in CSBMs, Mean (SD): 1.90 (2.743) CSBMs/week
[3]
  Change from Baseline in CSBMs, Difference from Placebo: 0.20 CSBMs/week
  Change from Baseline in CSBMs, LS Mean (SE): 1.70 (0.134) CSBMs/week
  Change from Baseline in CSBMs, Mean (SD): 1.64 (2.393) CSBMs/week
[4]
  Change from Baseline in CSBMs, Difference from Placebo: 0.18 CSBMs/week
  Change from Baseline in CSBMs, LS Mean (SE): 1.69 (0.133) CSBMs/week
  Change from Baseline in CSBMs, Mean (SD): 1.62 (2.339) CSBMs/week
Post-Treatment Week 13, Active Combined, ITT Population-Excluding Duplicate Patients, MRA
  Change from Baseline in CSBMs, Mean (SD): 1.76 (2.547) CSBMs/week
Post-Treatment Week 13, Active Combined, ITT Population, MRA
  Change from Baseline in CSBMs, Mean (SD): 1.76 (2.567) CSBMs/week
[5]
  Change from Baseline in CSBMs, Difference from Placebo: 0.43 CSBMs/week
  Change from Baseline in CSBMs, LS Mean (SE): 1.82 (0.136) CSBMs/week
  Change from Baseline in CSBMs, Mean (SD): 1.78 (2.620) CSBMs/week
[6]
  Change from Baseline in CSBMs, Difference from Placebo: 0.43 CSBMs/week
  Change from Baseline in CSBMs, LS Mean (SE): 1.83 (0.137) CSBMs/week
  Change from Baseline in CSBMs, Mean (SD): 1.78 (2.628) CSBMs/week
[7]
  Change from Baseline in CSBMs, Difference from Placebo: 0.34 CSBMs/week
  Change from Baseline in CSBMs, LS Mean (SE): 1.73 (0.137) CSBMs/week
  Change from Baseline in CSBMs, Mean (SD): 1.67 (2.616) CSBMs/week
[8]
  Change from Baseline in CSBMs, Difference from Placebo: 0.31 CSBMs/week
  Change from Baseline in CSBMs, LS Mean (SE): 1.71 (0.136) CSBMs/week
  Change from Baseline in CSBMs, Mean (SD): 1.64 (2.536) CSBMs/week
Post-Treatment Week 14, Active Combined, ITT Population-Excluding Duplicate Patients, MRA
  Change from Baseline in CSBMs, Mean (SD): 1.71 (2.582) CSBMs/week
Post-Treatment Week 14, Active Combined, ITT Population, MRA
  Change from Baseline in CSBMs, Mean (SD): 1.72 (2.616) CSBMs/week
[9]
  Change from Baseline in CSBMs, Difference from Placebo: 0.88 CSBMs/week
  Change from Baseline in CSBMs, LS Mean (SE): 1.72 (0.153) CSBMs/week
  Change from Baseline in CSBMs, Mean (SD): 1.75 (2.732) CSBMs/week
[10]
  Change from Baseline in CSBMs, Difference from Placebo: 0.88 CSBMs/week
  Change from Baseline in CSBMs, LS Mean (SE): 1.75 (0.155) CSBMs/week
  Change from Baseline in CSBMs, Mean (SD): 1.78 (2.752) CSBMs/week
[11]
  Change from Baseline in CSBMs, Difference from Placebo: 0.88 CSBMs/week
  Change from Baseline in CSBMs, LS Mean (SE): 1.71 (0.151) CSBMs/week
  Change from Baseline in CSBMs, Mean (SD): 1.72 (2.897) CSBMs/week
[12]
  Change from Baseline in CSBMs, Difference from Placebo: 0.87 CSBMs/week
  Change from Baseline in CSBMs, LS Mean (SE): 1.74 (0.153) CSBMs/week
  Change from Baseline in CSBMs, Mean (SD): 1.74 (2.911) CSBMs/week
Week 1, Active Combined, ITT Population-Excluding Duplicate Patients, MRA
  Change from Baseline in CSBMs, Mean (SD): 1.76 (2.832) CSBMs/week
Week 1, Active Combined, ITT Population, MRA
  Change from Baseline in CSBMs, Mean (SD): 1.74 (2.815) CSBMs/week
[13]
  Change from Baseline in CSBMs, Difference from Placebo: 0.86 CSBMs/week
  Change from Baseline in CSBMs, LS Mean (SE): 1.82 (0.153) CSBMs/week
  Change from Baseline in CSBMs, Mean (SD): 1.81 (2.963) CSBMs/week
[14]
  Change from Baseline in CSBMs, Difference from Placebo: 0.85 CSBMs/week
  Change from Baseline in CSBMs, LS Mean (SE): 1.84 (0.155) CSBMs/week
  Change from Baseline in CSBMs, Mean (SD): 1.82 (2.986) CSBMs/week
[15]
  Change from Baseline in CSBMs, Difference from Placebo: 0.85 CSBMs/week
  Change from Baseline in CSBMs, LS Mean (SE): 1.81 (0.152) CSBMs/week
  Change from Baseline in CSBMs, Mean (SD): 1.84 (3.158) CSBMs/week
[16]
  Change from Baseline in CSBMs, Difference from Placebo: 0.85 CSBMs/week
  Change from Baseline in CSBMs, LS Mean (SE): 1.84 (0.154) CSBMs/week
  Change from Baseline in CSBMs, Mean (SD): 1.85 (3.171) CSBMs/week
Week 2, Active Combined, ITT Population-Excluding Duplicate Patients, MRA
  Change from Baseline in CSBMs, Mean (SD): 1.84 (3.079) CSBMs/week
Week 2, Active Combined, ITT Population, MRA
  Change from Baseline in CSBMs, Mean (SD): 1.82 (3.061) CSBMs/week
[17]
  Change from Baseline in CSBMs, Difference from Placebo: 0.74 CSBMs/week
  Change from Baseline in CSBMs, LS Mean (SE): 1.94 (0.153) CSBMs/week
  Change from Baseline in CSBMs, Mean (SD): 1.94 (3.117) CSBMs/week
[18]
  Change from Baseline in CSBMs, Difference from Placebo: 0.74 CSBMs/week
  Change from Baseline in CSBMs, LS Mean (SE): 1.96 (0.156) CSBMs/week
  Change from Baseline in CSBMs, Mean (SD): 1.95 (3.143) CSBMs/week
[19]
  Change from Baseline in CSBMs, Difference from Placebo: 0.61 CSBMs/week
  Change from Baseline in CSBMs, LS Mean (SE): 1.81 (0.152) CSBMs/week
